Source: article PMC5099578, “A structural and functional study on the 2-C-methyl-D-erythritol-4-phosphate cytidyltransferase (IspD) from Bacillus subtilis” (Scientific Reports, 2016)

Molecular target: T1, BsIspD (Bacillus subtilis, UniProt Q06755)
T1 construct: gene ispD; full length (699 bp gene, 232 residues built); pGEX-6P-1, expressed in E. coli, GST tag cut with PreScission protease; homodimer
Experiment: X-ray crystal structure of the complex, […] Å
Type: binding
Conditions: co-crystallised with 10 mM CTP and 10 mM MgCl2; active site, one CTP and one Mg2+ in molecule D only

T1 sequence (Q06755 whole entry): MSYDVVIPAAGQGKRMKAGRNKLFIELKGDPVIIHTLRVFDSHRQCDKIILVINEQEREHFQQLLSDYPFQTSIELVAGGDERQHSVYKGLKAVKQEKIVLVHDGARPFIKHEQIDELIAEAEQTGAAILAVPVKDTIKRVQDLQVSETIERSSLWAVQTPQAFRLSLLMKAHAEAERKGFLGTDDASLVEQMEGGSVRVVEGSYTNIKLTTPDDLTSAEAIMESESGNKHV

Nc1ccn([C@@H]2O[C@H](COP(=O)(O)OP(=O)(O)OP(=O)(O)O)[C@@H](O)[C@H]2O)c(=O)n1 [CTP]
X-ray crystal structure of the complex, 1.90 Å: One CTP molecule and one magnesium ion were observed binding to the molecule D
